Source: patent US12539284B2, “Aminoxy acid-based anti-cancer stem cell compounds and methods thereof” (Westlake University, priority 2019, dated 2026)
“Also recorded” adds a separate entry of the source. Like-named read-outs stand apart in the source and are kept apart here.

What was measured:
MDCK = assay: Toxicity against normal cell line MDCK; type: cell-based
Description: Fourteen compounds including aminoxy acid monomers and dipeptides have been identified to show toxicity against HEY A8 CSCs. The half maximal inhibitory concentration (IC50) values of compounds sff-2-112, sff-2-124, sff-2-132 and sff-2-100 towards adherent cancer HEY A8, SKOV3 cells and CSCs were further determined. […] Especially compound sff-2-132, its selectivity to CSCs is up to 60-fold higher than that to cancer cells. Their toxicity against other normal cell lines NIH3T3, HEK293 and MDCK were also tested and the IC50 values were summarized in Table 1.

HEY A8 CSCs [1] = assay: Immunoblotting of apoptosis associated proteins PARP, Caspase 3, Caspase 9; type: cell-based, human; conditions: 48 h; CSCs at 10-fold lower concentration than cancer cells
Description: For immunostaining experiment, cells were treated with compound sff-2-112 (“Example 1”) or compound sff-2-132 (“Example 4”) at different concentration for 48 h, then washed twice with PBS buffer and lysed with 2×SDS buffer with 0.1% Benzonase. Protein extracts were quantified by Pierce BCA Protein Assay Kit with a Nanodrop 2000 (Thermo Fisher Scientific) according to the manufacture's instruction. Protein lysates (˜50 μg/lane) were resolved by SDS-PAGE and transferred onto PVDF membranes. Membranes were incubated with membrane blocking solution (Thermo Fisher Scientific) for 1 h. The blots were then probed with the relevant primary antibodies in blocking solution at 4° C. overnight with gentle agitation. Membranes were washed with 0.1% Tween 20/TBS for 5 min three times and were incubated with Horseradish Peroxidase (HRP) conjugated secondary antibodies for 1 h at room temperature. Antigens were detected by SuperSignal West Pico PLUS Chemiluminescent Substrate (Thermo Fisher Scientific). Imaging was performed using a ChemiDoc™ XRS+ System (Bio-Rad).

HEY A8 CSCs [2] = assay: In vivo tumor seeding ability of pretreated HEY A8 CSCs; conditions: CSCs pretreated 2 days in vitro, 10^6 cells injected subcutaneously in mice, 25 days
Description: In vivo tumor seeding ability of cells after treatment with compound sff-2-112 (“Example 1”) or sff-2-132 (“Example 4”) was evaluated. Taxol was used as a negative control. For this experiment, HEY A8 CSCs were pretreated with sff-2-112 (“Example 1”), sff-2-132 (“Example 4”) or Taxol for 2 days in suspension medium, respectively. Then cells were allowed to proliferate in full medium in the absence of drugs for 10 days. After that, 10^6 cells were injected into mice subcutaneously. Tumor size was measured for 25 days after injection.

[3] = test system: Huh 7 cancer stem cells (CD133+); assay: Cell viability (CellTiter-Glo) of sorted Huh 7 CD133+ cells; type: cell-based; conditions: 48 h, different doses
Description: (§1) Huh-7 cells were stained with PE-conjugated CD133 antibody (HCC cancer stem cell marker) according to the manufacturer's instructions. Then CD133^+ cells (Huh 7 cancer stem cells) and CD133− cells were sorted by flow cytometry and seeded into 96-well plate with fresh DMEM medium. After 24 h, medium was changed to fresh medium with compound sff-2-112 (“Example 1”) or sff-2-124 (“Example 3”) at different doses. After 48 h, cell viability was analyzed by CellTiter-Glo luminescent agent.

SKOV3 cancer cells = assay: Cell viability (CellTiter-Glo) on adherent SKOV3 cancer cells; type: cell-based, human
Description: Cell Cultures Human ovarian carcinoma cell lines HEY A8 and SKOV3 were gifts from Professor Alice Wong's group (The University of Hong Kong). Cells were grown in Dulbecco's Modified Eagle (DMEM) medium supplemented with 10% FBS and 1% penicillin/streptomycin at 37° C. in a humidified atmosphere containing […] CO2. Isolation and culture of spheres were performed in serum-free stem-cell-selective condition as described in literature Ip etl. Oncogene 2014, 5, 9133-9149. Briefly, 1-2 weeks after plating, non-adherent spherical clusters of cells could be observed and were separated from single cells by low speed centrifugation. After 8th to 10th passages, the non-adherent spherical clusters of cells appeared as distinct spheres. Using this selection condition, HEY A8 spheres (HEY A8 SP) or SKOV3 spheres (SKOV3 SP) could be enzymatically dissociated and reformed into spheres within 3 days under stem-cell-selective condition. To allow differentiation, dissociated sphere cells were plated on tissue culture plates in medium (MCDB 105:M199=1:1) supplemented with 10% FBS and 1% PS.
HEY A8 or SKOV3 cancer Cells were plated in triplicate in 0.1 mL full medium in 96-well plates for 24 h. After that, the medium was changed to the fresh prepared medium with various concentrations of compounds. Cells were incubated for another 48 h. Then the cell viability was measured by CellTiter-Glo® Luminescent Cell Viability reagent according to the manufacture's instruction. The luminescence at 550 nm was measured using a microplate reader (SpectraMax 340PC 384, Molecular Devices).

Huh 7 CD133- cells = assay: Cell viability (CellTiter-Glo) of sorted Huh 7 CD133- cells; type: cell-based; conditions: 48 h, different doses
Description: as §1

IC50 (SKOV3 cancer cells; Homo sapiens, SK-OV-3, 48 h incubation) | SMILES | IC50 (MDCK) | activation of PARP1, Caspase 3 and Caspase 9 (HEY A8 CSCs [1]) | tumor-seeding ability / tumor size of pretreated cells (HEY A8 CSCs [2]) | death of Huh 7 CD133+ cells [3] | IC50 (SKOV3 cancer cells; 48 h incubation) | death of Huh 7 CD133- cells (Huh 7 CD133- cells) | IC50 (MDCK; Canis lupus familiaris, MDCK)
 | O=C(NO[C@H](COCc1ccccc1)C(=O)Nc1ccccc1)c1cc(C(F)(F)F)cc(C(F)(F)F)c1 [sff-2-112] | 25.1 ± 1.1 µM | activation of protein PARP1, Caspase 3 and Caspase 9 was also observed in CSCs | significant decrease in tumor-seeding ability; also recorded: significantly decreased tumor size | induce the death | 42.1 ± 5.2 µM | induce the death | 
63.4 ± 8.9 µM | CC(C)(C)OC(=O)[C@@H](COCc1ccccc1)ONC(=O)c1cc(C(F)(F)F)cc(C(F)(F)F)c1 [sff-2-132] |  | activation of protein PARP1, Caspase 3 and Caspase 9 was also observed in CSCs | significant decrease in tumor-seeding ability; also recorded: significantly decreased tumor size |  |  |  | 49.1 ± 0.4 µM
